The values that follow come from patent publication US12630534B2 (TAKEDA PHARMACEUTICAL COMPANY LIMITED, priority 2020, dated 2026).

The target of one test is T1, human GPR139 (Homo sapiens, UniProt Q6DWJ6).
T1 construct: expressed in transfected cells; host or cells: CHO-TREx (Life Technologies) cells, expression induced with doxycycline
T1 sequence (Q6DWJ6 1-353): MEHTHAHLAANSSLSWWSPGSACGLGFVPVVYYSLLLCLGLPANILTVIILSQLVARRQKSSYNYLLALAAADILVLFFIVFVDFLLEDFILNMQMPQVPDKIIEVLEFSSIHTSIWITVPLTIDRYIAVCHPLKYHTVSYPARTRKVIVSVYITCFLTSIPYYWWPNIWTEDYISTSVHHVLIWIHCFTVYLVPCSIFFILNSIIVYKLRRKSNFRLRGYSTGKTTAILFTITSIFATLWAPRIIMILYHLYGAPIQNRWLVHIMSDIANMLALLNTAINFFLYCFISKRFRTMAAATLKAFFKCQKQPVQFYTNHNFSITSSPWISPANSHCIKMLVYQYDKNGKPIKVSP
The experiment in a line: Inhibition rate of the amount of IP1 in GPR139-expressed CHO cells (inverse agonist assay, Test Example 2). The conditions noted are these: CHO, relative value, inhibition rate of Example Compound 2 in Test Example 1 defined as 100%. The class given is cell-based. A digest of the protocol: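 CHO-TREx cells with doxycycline-inducible human GPR139 (2 μg/mL, 17 h) were incubated with compound at 2000 cells/well for 40 min at 37° C. IP1 quantified by HTRF (665/615 nm ratio ×10000); inhibition rate expressed relative to a reference compound defined as […].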
For `CCn1cc(Cn2c(Cl)nn(-c3cc(N4CCO[C@H](C)C4)cc(C(F)(F)F)c3F)c2=O)cn1` [Example 155, 5-chloro-4-[(1-ethyl-1H-pyrazol-4-yl)methyl]-2-{2-fluoro-5-[(2R)-2-methylmorpholin-4-yl]-3-(trifluoromethyl)phenyl}-2,4-dihydro-3H-1,2,4-triazol-3-one], the inhibition at 30 µM turned out to be 101%.

Turning to `CCn1cc(Cn2c(C)c(C)n(-c3cc(OC[C@@H]4CCCO4)cc(C(F)(F)F)c3)c2=O)cn1` [Example 100], the inhibition at 30 µM turned out to be 99%.

Regarding `Cc1cn(Cc2cnn(C(C)C)c2)c(=O)n1-c1nc(N2CCOC(C)(C)C2)cc(C(F)(F)F)n1` [Example 135, 3-[4-(2,2-dimethylmorpholin-4-yl)-6-(trifluoromethyl)pyrimidin-2-yl]-4-methyl-1-{[1-(propan-2-yl)-1H-pyrazol-4-yl]methyl}-1,3-dihydro-2H-imidazol-2-one], the inhibition at 30 µM is 102%.

Turning to `CCc1nn(-c2cc(N3CCOC(C)(C)C3)cc(C(F)(F)F)c2F)c(=O)n1Cc1cnn(CC)c1` [Example 136, 2-[5-(2,2-dimethylmorpholin-4-yl)-2-fluoro-3-(trifluoromethyl)phenyl]-5-ethyl-4-[(1-ethyl-1H-pyrazol-4-yl)methyl]-2,4-dihydro-3H-1,2,4-triazol-3-one], the inhibition at 30 µM was 100%.

Take `CCn1cc(Cn2cc(C)n(-c3cc(N(C)C4CCOCC4)cc(C(F)(F)F)c3)c2=O)cn1` [Example 38, 1-[(1-ethyl-1H-pyrazol-4-yl)methyl]-4-methyl-3-{3-[methyl(oxan-4-yl)amino]-5-(trifluoromethyl)phenyl}-1,3-dihydro-2H-imidazol-2-one]: the inhibition at 30 µM came out at 99%.

As to `CCn1cc(Cn2ccn(-c3cc(N4CCOC5(CC5)C4)cc(C(F)(F)F)c3F)c2=O)cn1` [Example 43, 1-[(1-ethyl-1H-pyrazol-4-yl)methyl]-3-[2-fluoro-5-(4-oxa-7-azaspiro[2.5]octan-7-yl)-3-(trifluoromethyl)phenyl]-1,3-dihydro-2H-imidazol-2-one], the inhibition at 30 µM amounted to 100%.

Take `CCn1cc(Cn2cc(C)n(-c3cc(Br)cc(N4CCO[C@H](C)C4)c3)c2=O)cn1` [Example 89, 3-{3-bromo-5-[(2R)-2-methylmorpholin-4-yl]phenyl}-1-[(1-ethyl-1H-pyrazol-4-yl)methyl]-4-methyl-1,3-dihydro-2H-imidazol-2-one]: the inhibition at 30 µM came out at 101%.

In the case of `Cc1nn(-c2cc(N3CCO[C@@H](C)C3)cc(C(F)(F)F)c2F)c(=O)n1Cc1cnn(C(C)C)c1` [Example 90, 2-{2-fluoro-5-[(2S)-2-methylmorpholin-4-yl]-3-(trifluoromethyl)phenyl}-5-methyl-4-{[1-(propan-2-yl)-1H-pyrazol-4-yl]methyl}-2,4-dihydro-3H-1,2,4-triazol-3-one], the inhibition at 30 µM turned out to be 99%.

Regarding `CCn1cc(Cn2cc(C)n(-c3cc(OCC4(F)CC4)cc(C(F)(F)F)c3)c2=O)cn1` [Example 56, 1-[(1-ethyl-1H-pyrazol-4-yl)methyl]-3-{3-[(1-fluorocyclopropyl)methoxy]-5-(trifluoromethyl)phenyl}-4-methyl-1,3-dihydro-2H-imidazol-2-one], the inhibition at 30 µM was determined as 98%.

In the case of `CCn1cc(Cn2c(C)nn(-c3cc(C(F)(F)F)c(F)c(N4CCC(F)(F)CC4)n3)c2=O)cn1` [Example 154, 2-[6-(4,4-difluoropiperidin-1-yl)-5-fluoro-4-(trifluoromethyl)pyridin-2-yl]-4-[(1-ethyl-1H-pyrazol-4-yl)methyl]-5-methyl-2,4-dihydro-3H-1,2,4-triazol-3-one], the inhibition at 30 µM worked out at 98%.

Take `CCn1cc(Cn2cc(C)n(-c3cc(C4CC4)cc(N4CCOC(C)(C)C4)c3)c2=O)cn1` [Example 147, 3-[3-cyclopropyl-5-(2,2-dimethylmorpholin-4-yl)phenyl]-1-[(1-ethyl-1H-pyrazol-4-yl)methyl]-4-methyl-1,3-dihydro-2H-imidazol-2-one]: the inhibition at 30 µM came to 100%.

Take `CCn1cc(Cn2cc(C)n(-c3cc(OCC4CC(F)(F)C4)cc(C(F)F)c3)c2=O)cn1` [Example 68, 3-{3-[(3,3-difluorocyclobutyl)methoxy]-5-(difluoromethyl)phenyl}-1-[(1-ethyl-1H-pyrazol-4-yl)methyl]-4-methyl-1,3-dihydro-2H-imidazol-2-one]: the inhibition at 30 µM amounted to 98%.

Turning to `Cc1cn(-c2nc(N3CCO[C@H](C)C3)cc(C(F)(F)F)c2Cl)c(=O)n1Cc1cnn(C(C)C)c1` [Example 85, 1-{3-chloro-6-[(2R)-2-methylmorpholin-4-yl]-4-(trifluoromethyl)pyridin-2-yl}-4-methyl-3-{[1-(propan-2-yl)-1H-pyrazol-4-yl]methyl}-1,3-dihydro-2H-imidazol-2-one], the inhibition at 30 µM stood at 97%.

As for `CCn1cc(Cn2ccn(-c3nc(N4CCOC(F)(F)C4)cc(C(F)(F)F)c3F)c2=O)cn1` [Example 123, 1-[6-(2,2-difluoromorpholin-4-yl)-3-fluoro-4-(trifluoromethyl)pyridin-2-yl]-3-[(1-ethyl-1H-pyrazol-4-yl)methyl]-1,3-dihydro-2H-imidazol-2-one], the inhibition at 30 µM worked out at 102%.

For the compound `CCn1cc(Cn2cc(C)n(-c3cc(OC4CCOCC4)cc(C(F)(F)F)c3)c2=O)cn1` [Example 6, 1-[(1-ethyl-1H-pyrazol-4-yl)methyl]-4-methyl-3-{3-[(oxan-4-yl)oxy]-5-(trifluoromethyl)phenyl}-1,3-dihydro-2H-imidazol-2-one], the inhibition at 30 µM amounted to 102%.

As to `CCn1cc(Cn2cc(C)n(-c3cc(OC[C@@H]4CCCO4)cc(C(F)(F)F)c3F)c2=O)cn1` [Example 107, 1-[(1-ethyl-1H-pyrazol-4-yl)methyl]-3-[2-fluoro-5-{[(2S)-oxolan-2-yl]methoxy}-3-(trifluoromethyl)phenyl]-4-methyl-1,3-dihydro-2H-imidazol-2-one], the inhibition at 30 µM is 104%.

`CCn1cc(Cn2ccn(-c3nc(N4CCO[C@H](C)C4)cc(C(F)(F)F)c3F)c2=O)cn1` [Example 26, 1-[(1-ethyl-1H-pyrazol-4-yl)methyl]-3-{3-fluoro-6-[(2R)-2-methylmorpholin-4-yl]-4-(trifluoromethyl)pyridin-2-yl}-1,3-dihydro-2H-imidazol-2-one]: the inhibition at 30 µM stood at 100%.

As to `Cc1cn(Cc2cnn(C(C)C)c2)c(=O)n1-c1cc(C(F)(F)F)cc(N2CCO[C@H](C)C2)n1` [Example 103, 4-Methy-3-{6-[(2R)-2-methylmorpholine-4-yl]-4-(trifluoromethyl)pyridine-2-yl}-1-{[1-(propane-2-yl)-1H-pyrazole-4-yl]methyl}-1,3-dihydro-2H-imidazole-2-one], the inhibition at 30 µM turned out to be 103%.

Take `Cc1nn(-c2cc(C(F)(F)F)cc(N3CCC(F)(F)CC3)n2)c(=O)n1Cc1cnn(C(C)C)c1` [Example 142, 2-[6-(4,4-difluoropiperidin-1-yl)-4-(trifluoromethyl)pyridin-2-yl]-5-methyl-4-{[1-(propan-2-yl)-1H-pyrazol-4-yl]methyl}-2,4-dihydro-3H-1,2,4-triazol-3-one]: the inhibition at 30 µM stood at 100%.

As to `CCn1cc(Cn2c(C)c(C)n(-c3cc(N4CCOC(F)(F)C4)cc(C(F)(F)F)c3F)c2=O)cn1` [Example 70, 1-[5-(2,2-difluoromorpholin-4-yl)-2-fluoro-3-(trifluoromethyl)phenyl]-3-[(1-ethyl-1H-pyrazol-4-yl)methyl]-4,5-dimethyl-1,3-dihydro-2H-imidazol-2-one], the inhibition at 30 µM came out at 100%.

In the case of `Cc1cc(N2CCO[C@H](C)C2)cc(-n2cc(C)n(Cc3cnn(C(C)C)c3)c2=O)c1F` [Example 87, 1-{2-fluoro-3-methyl-5-[(2R)-2-methylmorpholin-4-yl]phenyl}-4-methyl-3-{[1-(propan-2-yl)-1H-pyrazol-4-yl]methyl}-1,3-dihydro-2H-imidazol-2-one], the inhibition at 30 µM was 98%.

Consider `CCn1cc(Cn2c(C)c(C)n(-c3cc(C(F)(F)F)cc(OC[C@H]4CCCO4)n3)c2=O)cn1` [Example 114, 1-[(1-ethyl-1H-pyrazol-4-yl)methyl]-4,5-dimethyl-3-[6-{[(2R)-oxolan-2-yl]methoxy}-4-(trifluoromethyl)pyridin-2-yl]-1,3-dihydro-2H-imidazol-2-one], for which the inhibition at 30 µM came out at 103%.

Turning to `CCn1cc(Cn2cc(C)n(-c3cc(OCC4CC(F)(F)C4)cc(C(F)(F)F)c3)c2=O)cn1` [Example 7, 3-{3-[(3,3-difluorocyclobutyl)methoxy]-5-(trifluoromethyl)phenyl}-1-[(1-ethyl-1H-pyrazol-4-yl)methyl]-4-methyl-1,3-dihydro-2H-imidazol-2-one], the inhibition at 30 µM was 102%.

Staying with this test, now noted: relative value, inhibition rate of Example Compound 2 in Test Example 1 defined as 100%.
For `CCn1cc(Cn2ccn(-c3cc(N4CCC(F)(F)CC4)cc(C4CC4(F)F)c3F)c2=O)cn1` (stereo not shown) [Example 158, 1-[3-(2,2-difluorocyclopropyl)-5-(4,4-difluoropiperidin-1-yl)-2-fluorophenyl]-3-[(1-ethyl-1H-pyrazol-4-yl)methyl]-1,3-dihydro-2H-imidazol-2-one], the “Inhibition Rate at 30 μM” value amounted to 98%.

Still in this test, the particulars now being: relative value, inhibition rate of Example Compound 2 in Test Example 1 defined as 100%, 30 µM.
As for `CCn1cc(Cn2ccn(-c3cc(-c4ccc(F)cc4)cc(C4CC4(F)F)c3F)c2=O)cn1` (stereo not shown) [Example 145, 1-[5-(2,2-difluorocyclopropyl)-4,4′-difluoro[1,1′-biphenyl]-3-yl]-3-[(1-ethyl-1H-pyrazol-4-yl)methyl]-1,3-dihydro-2H-imidazol-2-one], the “Inhibition Rate at 30 μM” value is on record as 102%.

As usually defined, the inhibition is the relative decrease from the control value, in per cent.
